The text below walks through data of ChEMBL document CHEMBL1201862, “PubChem BioAssay data set” (2004).

Test systems include Hs-578T; BT-549; M19-MEL; LXFL 529; XF498; DMS-114; DLD-1; HOP-18.
What all share (assay): NCI-60 cell line screen, 48 h

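Grown in 96-well plates, cells were treated for 48 hours with each compound at five concentrations. Insufficient inhibition: endpoint recorded as highest concentration tested. Abbreviation: GI50, concentration required for 50% inhibition of growth.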 Active and inactive are the calls of the source. Cut-off read from the data, not from the text of the source: active = GI50 up to about 1.1 µM and inactive = higher. Some results are limits rather than exact numbers.

Consider `O=C1C2=C(C(=O)c3c(O)ccc(O)c31)[C@@H](O)[C@@H](O)[C@@H](O)C2`, for which the figures for the GI50 in the assay with Hs-578T and in the assay on BT-549 were 3.72 µM (inactive) and 1.43 µM (inactive), respectively.
As for `O=C(NC12CC3CC(CC(C3)C1)C2)C(=O)c1c[nH]c2ccc(Cl)cc12`, the GI50 in the assay on M19-MEL was 79.1 µM (inactive); in the assay on LXFL 529 it was 21.8 µM (inactive); with XF498 it was 14.7 µM (inactive); with DMS-114, 66.8 µM (inactive).
Take `C/C(CC(=O)Nc1cccc([N+](=O)[O-])c1)=N/NC(N)=S`: the GI50 in the assay with M19-MEL, with LXFL 529, in the assay with DLD-1 and with DMS-114 was > 100 µM (inactive) throughout.
With `CC(=O)Nc1[nH]c(=O)[nH]c(=O)c1N(C(C)=O)C(C)=O`, the GI50 with M19-MEL, in the assay with LXFL 529, with DLD-1, in the assay on XF498 and in the assay with DMS-114 was > 100 µM (inactive) each time.
Turning to `Cc1nc2ccc(S(=O)(=O)Nc3ccccc3Cl)cc2c(=O)n1NC(=O)CNc1ccccc1Cl`, the GI50 in the assay on Hs-578T and with BT-549 was > 100 µM (inactive) throughout.
As for `O=c1oc2cc(O)ccc2c(O)c1C(c1ccccc1F)c1c(O)c2ccc(O)cc2oc1=O`, the GI50 in the assay on Hs-578T was 68.9 µM (inactive); with BT-549, 11.3 µM (inactive).
With `CCn1c(-c2cc(OC)cc(OC)c2)nc2c1C(=O)c1ccccc1C2=O`, the GI50 in the assay with Hs-578T is 36.5 µM (inactive); in the assay with BT-549, > 100 µM (inactive).
In the same order, the values of `CCOC(=O)CCC(NC(=O)c1ccc(CNc2nc3cc(N)cc(N)c3nc2-c2ccccc2)cc1)C(=O)OCC` (centres undefined) are > 84.5 µM (inactive) and > 100 µM (inactive).
In the same order, the values of `COc1ccc2nc3cc([N+](=O)[O-])ccc3c(Nc3ccc(S(=O)(=O)N=C(N)N)cc3)c2c1` are 30.9 µM (inactive) and 33.2 µM (inactive).
For `O=C(Cn1c(C(=O)/C=C/c2ccco2)nc2ccccc21)c1ccc(Cl)cc1`, in that order: 1.29 µM (inactive) and 14.9 µM (inactive).
For `CN(C)CCCNc1nnc(NCCCN(C)C)c2c(=O)c3sccc3[nH]c12`, the figures for the GI50 with Hs-578T and in the assay on BT-549 were 23.2 µM (inactive) and 32.1 µM (inactive), respectively.
For `COc1ccc(C(OCC2OC3(COC(c4ccccc4)(c4ccc(OC)cc4)c4ccc(OC)cc4)C(Oc4nc(=O)ccn43)C2O)(c2ccccc2)c2ccc(OC)cc2)cc1` (centres undefined), in that order: 10.8 µM (inactive) and > 100 µM (inactive).
Turning to `CCc1ccccc1N1CCN(C(=O)c2cc(OC)c(OC)c(OC)c2)CC1`, the GI50 was 0.0647 µM (active) in the assay with M19-MEL; 0.0144 µM (active) with Hs-578T; 0.2 µM (active) in the assay with DLD-1; 0.115 µM (active) in the assay with XF498; 0.0361 µM (active) with BT-549; 0.0561 µM (active) with DMS-114.
Regarding `Cc1ccc(S(=O)(=O)[N-]C2C(=O)c3ccccc3C(=O)C2[n+]2cccc(C(N)=O)c2)cc1` (centres undefined), the GI50 with Hs-578T and in the assay with BT-549 was > 100 µM (inactive) in each case.
Turning to `O=C1C[C@@]23CCC4(CC2=CCC[C@H]3O1)OCCO4`, the GI50 with Hs-578T was > 100 µM (inactive).
As for `C=C(C)[C@@H]1CC[C@]2(C(=O)O)CC[C@]3(C)[C@H](CCC4[C@@]5(C)CC[C@H](C(=O)/C=C/c6ccc(O)c(O)c6)C(C)(C)[C@@H]5CC[C@]43C)[C@@H]12` (some centres undefined), the GI50 with Hs-578T was 5.47 µM (inactive); with BT-549, 12 µM (inactive).
`CCOC(=O)c1nc2ccccc2nc1Nc1ccc(OC)cc1`: the GI50 in the assay with Hs-578T is 41.2 µM (inactive); in the assay with BT-549, 24 µM (inactive).
Turning to `COC(=O)c1c(C)cc(OC)c(C/C=C(\C)CCCc2coc(C=C(C)C)c2)c1OC`, the GI50 in the assay with Hs-578T is 18.2 µM (inactive); in the assay on BT-549, > 100 µM (inactive).
As for `CN1C(=O)CC(c2cccc(C3CC(=O)N(C)C3=O)n2)C1=O` (centres undefined), the GI50 with HOP-18, in the assay with M19-MEL, in the assay with LXFL 529, in the assay on DLD-1 and with DMS-114 was > 100 µM (inactive) throughout.
On to `S=C1N=C2C(=N1)n1c3c(c4ccccc41)CCCC23` (centres undefined), for which the GI50 in the assay with Hs-578T was 44.1 µM (inactive); in the assay with BT-549, 59.2 µM (inactive).
Turning to `Cc1cn(C2CC(n3cc(Cn4cc(F)c(=O)[nH]c4=O)nn3)C(CO)O2)c(=O)[nH]c1=O` (centres undefined), the GI50 in the assay on Hs-578T and with BT-549 was > 100 µM (inactive) in each case.
For `N#C[C@H](C(=O)c1ccccc1F)c1nc2ccccc2[nH]1`, the GI50 with Hs-578T is 85.5 µM (inactive); in the assay on BT-549, > 100 µM (inactive).
Take `CC1CN=C(N(C(=O)Nc2ccccc2)c2ccccc2)S1` (centres undefined): the GI50 in the assay with Hs-578T is 42.5 µM (inactive).
As to `CS(=O)(=O)OCCN1CCN(C(=O)c2cccc3c(Nc4ccc(S(=O)(=O)N=C(N)N)cc4)c4ccccc4nc23)CC1`, the GI50 in the assay on M19-MEL, in the assay on DLD-1, in the assay on XF498 and with DMS-114 was > 100 µM (inactive) throughout.
Turning to `CCOC(=O)C(C(=S)SC)c1nn2c(=O)cc(C)nc2s1` (centres undefined), the GI50 in the assay on Hs-578T is 22.1 µM (inactive); in the assay with BT-549, 16.9 µM (inactive).
